Key:
adults with MDD [1] = experiment: Phase 3 CORAL study: treatment-emergent adverse events (safety set); type: in vivo, human; details: 50 mg once daily 14 days co-initiated with ADT
Procedure: This was a randomized, double-blind, parallel-group, placebo-controlled study in adults with MDD. The diagnosis of MDD was made according to Structured Clinical Interview for Diagnostic and Statistical Manual of Mental Disorders, Fifth Edition (DSM-5) Clinical Trial Version (SCID 5-CT) performed by a qualified healthcare professional.
Participants were randomized to receive blinded Compound (1) 50 mg or placebo for administration each evening from Days 1 through 14. In addition, all participants received 1 of 2 classes of ADTs: a selective serotonin reuptake inhibitor (SSRI; sertraline, escitalopram, citalopram) or a serotonin-norepinephrine reuptake inhibitor (SNRI; duloxetine or desvenlafaxine) in an open-label manner from Day 1 through the end of the study. The ADT was administered per labeled prescribing information. The investigator assigned 1 of the 5 ADTs based on clinical standard of care; the participant must not have had been previously treated with the assigned ADT within the current depressive episode and must not have had taken any ADT within 30 days prior to Day 1 (or taken fluoxetine within 60 days prior to Day 1). Randomization was stratified by ADT class (SSRI or SNRI). […]

patients with MDD or PPD = details: cited from earlier work
adults with MDD [2] = details: responders to first 14-day course of 50 mg who continued beyond Day 28; up to 1 year follow-up; cited from earlier work
[3] = test system: patients with major depressive disorder (MDD); details: TEAEs: nausea/vomiting, diarrhoea, abdominal pain, dyspepsia, anorexia, dry mouth; cited from earlier work

SMILES | tolerability (in words) (adults with MDD [1]) | onset of effect on depressive symptoms (patients with MDD or PPD; 50 mg vs placebo, patients with MDD or PPD) | minimally effective dose (patients with MDD or PPD; previous Compound (1) studies in MDD) | patients who received a total of 1 or 2 treatment courses (adults with MDD [2]) | tolerability on the gastrointestinal tract among antidepressants (in words) [3]
C[C@@]1(O)CC[C@H]2[C@H](CC[C@@H]3[C@@H]2CC[C@]2(C)[C@@H](C(=O)Cn4cc(C#N)cn4)CC[C@@H]32)C1 [Compound (1), 1-(2-((3R,5R,8R,9R,10S,13S,14S,17S)-3-hydroxy-3,13-dimethylhexadecahydro-1H-cyclopenta[a]phenanthren-17-yl)-2-oxoethyl)-1H-pyrazole-4-carbonitrile] | generally-well tolerated | Day 2 or 3 | 30 mg | approximately 80% | –
CN(C)CCC[C@@]1(c2ccc(F)cc2)OCc2cc(C#N)ccc21 [escitalopram] | – | – | – | – | least tolerated
CN[C@H]1CC[C@@H](c2ccc(Cl)c(Cl)c2)c2ccccc21 [sertraline] | – | – | – | – | least tolerated
